Data taken from patent US20130331764A9, “ANTICANCER AGENT DELIVERY SYSTEM USING pH-SENSITIVE METAL NANOPARTICLES” (priority 2010, published 2013).

Test system: Breast cancer cells
Test: Drug test: intranuclear delivery of doxorubicin by nuclear yellow-reddish fluorescence (fluorescence microscopy)
Format: cell-based
Experimental: In this Example, the anticancer drug doxorubicin was employed. Doxorubicin works to induce cell death by intercalating DNA. It emits yellow-reddish fluorescence at near 600 nm. When the conjugates penetrate into cancer cells, doxorubicin is dissociated from the gold nanoparticles by hydrolysis under an acidic condition and translocates into the nucleus which thus emits yellow-reddish fluorescence.
Breast cancer cells in test groups were incubated with the pH-sensitive gold nanoparticle-doxorubicin conjugates to induce the internalization of the conjugate (middle panel, FIG. 6).
For comparison, cells were incubated with doxorubicin-free pH-sensitive gold nanoparticles (left panel, FIG. 6) and with doxorubicin alone (right panel, FIG. 6) under the same condition.
The intranuclear delivery of doxorubicin can be qualitatively analyzed in terms of nuclear yellow-reddish fluorescence as measured by fluorescence microscopy.

COc1cccc2c1C(=O)c1c(O)c3c(c(O)c1C2=O)C[C@@](O)(C(=O)CO)C[C@@H]3O[C@H]1C[C@H](N)[C@H](O)[C@H](C)O1 [doxorubicin]
nuclear fluorescence of doxorubicin (3 hours of incubation): the fluorescence was intensified | nuclear fluorescence of doxorubicin (one hour of incubation): started to exhibit fluorescence
